{"source": "patent US7722901B2", "about": "“Uses for the extract of a plant of the family Asclepiadaceae” (Cognis IP Management GmbH, priority 2004, dated 2010)", "tested_on": "human hair follicles", "test": "In vitro culture of human hair follicles (hair growth inhibition)", "format": "cell-based", "conditions": "50 follicles from 5 donors", "method": "The hair follicles were incubated for 7 days at 37° C. under an atmosphere of air that was enriched with carbon dioxide (5 vol.-%). The length of hair follicles was monitored before being cultured, after 3 days of culture and after 7 days of culture. […] The test was done on hair follicles coming from 3-5 different donors. For each donor 10 follicles were cultured for each set of conditions. The results presented in table 2 are the cumulated results of all hair follicles.", "key": {"[1]": {"conditions": "with IGF-1 (30 ng/ml), 0.001 % P/v"}}}
{"smiles": "C=C[C@@]1(C)CC(=O)[C@]2(O)[C@@]3(C)[C@@H](O)CCC(C)(C)[C@@H]3[C@H](O)[C@H](OC(C)=O)[C@@]2(C)O1", "note": "[Forskolin]", "values": [{"measurement": "increase in hair growth Day 3/Day 0", "setting": "[1]", "result": "+9%"}, {"measurement": "increase in hair growth Day 7/Day 0", "setting": "[1]", "result": "+17%"}, {"measurement": "increase in hair growth Day 3/Day 0", "setting": "without IGF-1, 0.001 % P/v", "result": "+8%"}, {"measurement": "increase in hair growth Day 7/Day 0", "setting": "without IGF-1, 0.001 % P/v", "result": "+15%"}]}
